Here are results for 4 compounds from ChEMBL document CHEMBL1201862, “PubChem BioAssay data set” (2004).

Test systems include Malme-3M; SR; ACHN; SK-MEL-5; SK-MEL-28; MDA-MB-231; MDA-MB-435; HT-29; RPMI-8226; OVCAR-5; K562; HCC 2998; SW-620; OVCAR-4; HOP-62; NCI-H226; UACC-62; RXF 393; A498; MDA-N.
What all share (assay): NCI-60 cell line screen, 48 h

The structures appear in SMILES notation.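 Briefly, cells in 96-well plates were exposed to five compound concentrations for 48 h, and endpoints were estimated by linear interpolation. GI50 marks 50% less growth.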 Calls of active or inactive are those of the source. Rule as the data show it: active = GI50 up to about 1.1 µM and inactive = higher.

For `O=C(Cc1ccc(Cl)c(Cl)c1)N(CCc1ccc(Cl)c(Cl)c1)CCN1CCCC1`, the GI50 with Malme-3M was 1.73 µM (inactive); with SR, 1.39 µM (inactive); in the assay on ACHN, 1.71 µM (inactive); with SK-MEL-5, 1.78 µM (inactive); in the assay on SK-MEL-28, 1.43 µM (inactive); with MDA-MB-231, 1.76 µM (inactive). The GI50 in the assay with MDA-MB-435 was 1.77 µM (inactive); in the assay on HT-29 it was 1.86 µM (inactive); in the assay with RPMI-8226, 1.71 µM (inactive); in the assay with OVCAR-5 it was 1.8 µM (inactive); with K562, 1.87 µM (inactive); in the assay on HCC 2998, 1.81 µM (inactive). The GI50 in the assay on SW-620 is 1.53 µM (inactive); with OVCAR-4 it was 2.19 µM (inactive); in the assay on HOP-62, 1.79 µM (inactive); with NCI-H226, 2.01 µM (inactive); in the assay with UACC-62, 1.78 µM (inactive); with RXF 393, 1.71 µM (inactive). Further, the results for the GI50 in the assay with A498 and with MDA-N were 1.85 µM (inactive) and 1.67 µM (inactive), respectively.

Take `Cc1cnc(NCCCN(C)C)c2c1[nH]c1ccc3cc(O)ccc3c12`: the GI50 in the assay with Malme-3M was 0.879 µM (active); in the assay on SR, 0.0617 µM (active); with ACHN, 0.552 µM (active); in the assay with SK-MEL-5 it was 0.815 µM (active); with SK-MEL-28, 1.39 µM (inactive); in the assay with MDA-MB-231, 0.879 µM (active). For the same compound, the GI50 in the assay with MDA-MB-435 is 1.1 µM (active); in the assay with HT-29 it was 0.362 µM (active); in the assay on RPMI-8226 it was 0.6 µM (active); in the assay on OVCAR-5 it was 0.925 µM (active); with K562, 1.28 µM (inactive); in the assay with HCC 2998 it was 0.326 µM (active). Further, the GI50 with SW-620 was 0.166 µM (active); in the assay with OVCAR-4, 0.282 µM (active); with HOP-62 it was 0.267 µM (active); in the assay with NCI-H226, 0.435 µM (active); in the assay on UACC-62 it was 0.678 µM (active); in the assay with RXF 393, 0.667 µM (active). The results for the GI50 with A498 and in the assay with MDA-N were 1.56 µM (inactive) and 1.04 µM (active), respectively.

For `C=C1CC2(CC(c3ccccc3OC)OC(c3ccccc3OC)C2)OC1=O` (stereo not given), the GI50 is 1.72 µM (inactive) in the assay with Malme-3M; 1.84 µM (inactive) in the assay with SR; 2.29 µM (inactive) in the assay with ACHN; 2.58 µM (inactive) in the assay on SK-MEL-5; 1.45 µM (inactive) in the assay with SK-MEL-28; 1.77 µM (inactive) with MDA-MB-231. Besides, the GI50 in the assay with MDA-MB-435 is 1.91 µM (inactive); with HT-29 it was 2.06 µM (inactive); in the assay with RPMI-8226, 0.25 µM (active); in the assay on OVCAR-5, 7.46 µM (inactive); in the assay with K562, 2.06 µM (inactive); in the assay with HCC 2998 it was 2.49 µM (inactive). The GI50 in the assay on SW-620 was 1.72 µM (inactive); in the assay with OVCAR-4, 4.35 µM (inactive); in the assay with HOP-62 it was 13.6 µM (inactive); in the assay with NCI-H226, 8.41 µM (inactive); in the assay on UACC-62 it was 2.18 µM (inactive); in the assay on RXF 393, 1.81 µM (inactive). Besides, the GI50 in the assay on A498 was 5.81 µM (inactive); in the assay on MDA-N, 1.83 µM (inactive).

Regarding `O=C(COc1ccc(OCC(=O)N/N=C/c2ccc(-c3ccc(Cl)cc3Cl)o2)c(Cl)c1)N/N=C/c1ccc(-c2ccc(Cl)cc2Cl)o1`, the GI50 in the assay with Malme-3M is 82.8 µM (inactive); in the assay on SR it was 0.342 µM (active); in the assay with ACHN, 70.1 µM (inactive); in the assay on SK-MEL-5, > 100 µM (inactive); with SK-MEL-28 it was > 100 µM (inactive); in the assay with MDA-MB-231, 35 µM (inactive). The GI50 in the assay on MDA-MB-435 was 24.1 µM (inactive); in the assay with HT-29, > 100 µM (inactive); in the assay on RPMI-8226, 12.6 µM (inactive); in the assay with OVCAR-5, > 100 µM (inactive); with K562, 15.3 µM (inactive); with HCC 2998 it was 29.8 µM (inactive). Also, the GI50 in the assay with SW-620 was > 100 µM (inactive); in the assay with OVCAR-4, > 100 µM (inactive); in the assay with HOP-62 it was 27.5 µM (inactive); in the assay on NCI-H226, 45.7 µM (inactive); in the assay with UACC-62 it was 27.9 µM (inactive); in the assay on RXF 393 it was 33.6 µM (inactive). Further, the GI50 in the assay on A498 was 49.3 µM (inactive); in the assay on MDA-N it was 31.6 µM (inactive).
